# How the values were obtained:
# Format in all cases: in vivo
# [1] = tested on: Septoria nodorum; assay: Test D: wheat glume blotch, preventive spray on wheat seedlings; conditions: 200 ppm; wheat seedlings sprayed to run-off, inoculated next day, rated after 48 h + 7 days
# Excerpt: General protocol for preparing test suspensions for Tests A-G: the test compounds were first dissolved in acetone in an amount equal to 11% of the final volume and then suspended at the desired concentration (in ppm) in acetone and purified water (50/50 mix by volume) containing 250 ppm of the surfactant Trem® 014 (polyhydric alcohol esters). The resulting test suspensions were then used in Tests A-G. Spraying a 200 ppm test suspension to the point of run-off on the test plants was the equivalent of a rate of 800 g/ha. The test suspension was sprayed to the point of run-off on wheat seedlings. The following day the seedlings were inoculated with a spore suspension of Septoria nodorum (the causal agent of wheat glume blotch) and incubated in a saturated atmosphere at 20° C. for 48 h, and then moved to a growth chamber at 20° C. for 7 days, after which time disease ratings were visually made. Results for Tests A-G are given in Table A. In the Table, a rating of 100 indicates 100% disease control and a rating of 0 indicates no disease control (relative to the controls). A dash (-) indicates no test results. All results are for 200 ppm except where followed by an “*”, which indicates 40 ppm.
# [2] = tested on: Puccinia recondita f. sp. tritici; assay: Test C: wheat leaf rust, spray the day after inoculation of wheat seedlings; conditions: 200 ppm; wheat seedlings inoculated, sprayed the following day, rated after 5 days;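 also: Curative spray on infected wheat seedlings with visual rating 5 days later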
# Excerpt: General protocol for preparing test suspensions for Tests A-G: the test compounds were first dissolved in acetone in an amount equal to 11% of the final volume and then suspended at the desired concentration (in ppm) in acetone and purified water (50/50 mix by volume) containing 250 ppm of the surfactant Trem® 014 (polyhydric alcohol esters). The resulting test suspensions were then used in Tests A-G. Spraying a 200 ppm test suspension to the point of run-off on the test plants was the equivalent of a rate of 800 g/ha. Wheat seedlings were inoculated with a spore suspension of Puccinia recondita f. sp. tritici (the causal agent of wheat leaf rust) and incubated in a saturated atmosphere at 20° C. for 24 h. The following day, the test suspension was sprayed to the point of run-off on the wheat seedlings and then moved to a growth chamber at 20° C. for 5 days, after which time disease ratings were visually made. Results for Tests A-G are given in Table A. In the Table, a rating of 100 indicates 100% disease control and a rating of 0 indicates no disease control (relative to the controls). A dash (-) indicates no test results. All results are for 200 ppm except where followed by an “*”, which indicates 40 ppm.
# [3] = tested on: Erysiphe graminis f. sp. tritici; assay: Test A: wheat powdery mildew, preventive spray on wheat seedlings; conditions: 200 ppm; wheat seedlings sprayed to run-off, inoculated next day, rated after 8 days; 100 = 100% disease control, 0 = no control
# Excerpt: General protocol for preparing test suspensions for Tests A-G: the test compounds were first dissolved in acetone in an amount equal to 11% of the final volume and then suspended at the desired concentration (in ppm) in acetone and purified water (50/50 mix by volume) containing 250 ppm of the surfactant Trem® 014 (polyhydric alcohol esters). The resulting test suspensions were then used in Tests A-G. Spraying a 200 ppm test suspension to the point of run-off on the test plants was the equivalent of a rate of 800 g/ha. The test suspension was sprayed to the point of run-off on wheat seedlings. The following day the seedlings were inoculated with a spore dust of Erysiphe graminis f. sp. tritici, (the causal agent of wheat powdery mildew) and incubated in a growth chamber at 20° C. for 8 days, after which time disease ratings were visually made. Results for Tests A-G are given in Table A. In the Table, a rating of 100 indicates 100% disease control and a rating of 0 indicates no disease control (relative to the controls). A dash (-) indicates no test results. All results are for 200 ppm except where followed by an “*”, which indicates 40 ppm.
# [4] = tested on: Botrytis cinerea; assay: Test F: tomato botrytis, preventive spray on tomato seedlings; conditions: 200 ppm; tomato seedlings sprayed to run-off, inoculated next day, rated after 48 h + 3 days
# Excerpt: General protocol for preparing test suspensions for Tests A-G: the test compounds were first dissolved in acetone in an amount equal to 11% of the final volume and then suspended at the desired concentration (in ppm) in acetone and purified water (50/50 mix by volume) containing 250 ppm of the surfactant Trem® 014 (polyhydric alcohol esters). The resulting test suspensions were then used in Tests A-G. Spraying a 200 ppm test suspension to the point of run-off on the test plants was the equivalent of a rate of 800 g/ha. The test suspension was sprayed to the point of run-off on tomato seedlings. The following day the seedlings were inoculated with a spore suspension of Botrytis cinerea (the causal agent of tomato botrytis) and incubated in saturated atmosphere at 20° C. for 48 h, and then moved to a growth chamber at 27° C. for 3 additional days, after which time disease ratings were visually made. Results for Tests A-G are given in Table A. In the Table, a rating of 100 indicates 100% disease control and a rating of 0 indicates no disease control (relative to the controls). A dash (-) indicates no test results. All results are for 200 ppm except where followed by an “*”, which indicates 40 ppm.
# [5] = tested on: Alternaria solani; assay: Test G: tomato early blight, preventive spray on tomato seedlings; conditions: 200 ppm; tomato seedlings sprayed to run-off, inoculated next day, rated after 48 h + 5 days
# Excerpt: General protocol for preparing test suspensions for Tests A-G: the test compounds were first dissolved in acetone in an amount equal to 11% of the final volume and then suspended at the desired concentration (in ppm) in acetone and purified water (50/50 mix by volume) containing 250 ppm of the surfactant Trem® 014 (polyhydric alcohol esters). The resulting test suspensions were then used in Tests A-G. Spraying a 200 ppm test suspension to the point of run-off on the test plants was the equivalent of a rate of 800 g/ha. The test suspension was sprayed to the point of run-off on tomato seedlings. The following day the seedlings were inoculated with a spore suspension of Alternaria solani (the causal agent of tomato early blight) and incubated in a saturated atmosphere at 27° C. for 48 h, and then moved to a growth chamber at 24° C. for 5 days, after which time disease ratings were visually made. Results for Tests A-G are given in Table A. In the Table, a rating of 100 indicates 100% disease control and a rating of 0 indicates no disease control (relative to the controls). A dash (-) indicates no test results. All results are for 200 ppm except where followed by an “*”, which indicates 40 ppm.
# [6] = tested on: Puccinia recondita f sp. tritici; assay: Test B: wheat leaf rust, preventive spray on wheat seedlings; conditions: 200 ppm; wheat seedlings sprayed to run-off, inoculated next day, rated after 24 h + 7 days
# Excerpt: General protocol for preparing test suspensions for Tests A-G: the test compounds were first dissolved in acetone in an amount equal to 11% of the final volume and then suspended at the desired concentration (in ppm) in acetone and purified water (50/50 mix by volume) containing 250 ppm of the surfactant Trem® 014 (polyhydric alcohol esters). The resulting test suspensions were then used in Tests A-G. Spraying a 200 ppm test suspension to the point of run-off on the test plants was the equivalent of a rate of 800 g/ha. The test suspension was sprayed to the point of run-off on wheat seedlings. The following day the seedlings were inoculated with a spore suspension of Puccinia recondita f sp. tritici (the causal agent of wheat leaf rust) and incubated in a saturated atmosphere at 20° C. for 24 h, and then moved to a growth chamber at 20° C. for 7 days, after which time disease ratings were visually made. Results for Tests A-G are given in Table A. In the Table, a rating of 100 indicates 100% disease control and a rating of 0 indicates no disease control (relative to the controls). A dash (-) indicates no test results. All results are for 200 ppm except where followed by an “*”, which indicates 40 ppm.
# [7] = tested on: Septoria tritici; assay: Test E: wheat leaf blotch, preventive spray on wheat seedlings; conditions: 200 ppm; wheat seedlings sprayed to run-off, inoculated next day, rated after 48 h + 19 days
# Excerpt: General protocol for preparing test suspensions for Tests A-G: the test compounds were first dissolved in acetone in an amount equal to 11% of the final volume and then suspended at the desired concentration (in ppm) in acetone and purified water (50/50 mix by volume) containing 250 ppm of the surfactant Trem® 014 (polyhydric alcohol esters). The resulting test suspensions were then used in Tests A-G. Spraying a 200 ppm test suspension to the point of run-off on the test plants was the equivalent of a rate of 800 g/ha. The test suspension was sprayed to the point of run-off on wheat seedlings. The following day the seedlings were inoculated with a spore suspension of Septoria tritici (the causal agent of wheat leaf blotch) and incubated in a saturated atmosphere at 24° C. for 48 h, and then moved to a growth chamber at 20° C. for 19 days, after which time disease ratings were visually made. Results for Tests A-G are given in Table A. In the Table, a rating of 100 indicates 100% disease control and a rating of 0 indicates no disease control (relative to the controls). A dash (-) indicates no test results. All results are for 200 ppm except where followed by an “*”, which indicates 40 ppm.
SMILES,Percentage Disease Control Test D [1] [%],Percentage Disease Control Test C [2] [%],Percentage Disease Control Test A [3] [%],Percentage Disease Control Test F [4] [%],Percentage Disease Control Test G [5] [%],Percentage Disease Control Test B [6] [%],Percentage Disease Control Test E [7] [%]
COC(=O)NCc1cc(-n2ccc(-c3ccc4c(c3)N(C)CCO4)n2)ccc1F [Compound 21],100,98,13,99,99,100,96
COC(=O)NCc1cc(-n2ccc(-c3ccc4c(c3)C(F)CCO4)n2)ccc1F (stereo not shown) [Compound 22],100,100,100,33,8,100,94
COC(=O)NCc1cc(-n2ccc(-c3ccc4c(c3)OCCO4)n2)ccc1C [Compound 26],100,100,100,33,9,100,99
COC(=O)NCc1cc(-c2ccn(-c3ccc4c(c3)C=C(C#N)CO4)n2)ccc1Cl [Compound 27],100,0,0,66,86,99,0

# Source: US8921360B2, “Heterobicycle-substituted azolyl benzene fungicides” (priority 2009, dated 2014)
